Entries after “also recorded” stand apart in the source; their conditions may differ.
Tests used:
YycG′ protein = molecular target: T1, YycG′ protein (Staphylococcus epidermidis, UniProt Q5HK19); assay: Inhibition of YycG′ autophosphorylation (Kinase-Glo Luminescent Kinase Assay); assay type: biochemical; details: 4 μM ATP; for inhibition of the enzymatic activity of YycG′ protein: 100 μM derivative, 2 μg YycG′ protein; for IC50: Kinase-Glo, 2 μg YycG′, read-out: IC50 (inhibition of autophosphorylation of recombinant YycG′)
T1 construct: made in house; host or cells: E. coli BL21(DE3)
T1 sequence (Q5HK19 384-602 limits assumed): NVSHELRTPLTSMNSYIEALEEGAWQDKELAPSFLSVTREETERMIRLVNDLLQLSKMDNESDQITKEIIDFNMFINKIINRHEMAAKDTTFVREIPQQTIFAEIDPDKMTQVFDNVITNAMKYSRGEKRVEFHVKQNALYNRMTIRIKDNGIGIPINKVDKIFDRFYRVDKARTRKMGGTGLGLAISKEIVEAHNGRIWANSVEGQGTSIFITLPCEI
Procedure: The construction of the recombinant plasmid pET28a-YycG′ (containing the HATPase_c and HisKA domains of YycG) has been previously described (Liu et al., [2014]). After being used to transform E. coli strain BL21(DE3), this recombinant plasmid was induced to express YycG′ protein by 0.4 mM isopropyl-1-thio-β-D-galactopyranoside at 21°C for 12 h. Then, the bacterial cells were disrupted by sonication and centrifuged, the supernatant was purified by Ni–NTA agarose (Qiagen, Los Angeles, CA, USA). The inhibitory activities of the compound 5 derivatives on the ATPase activity of the YycG′ protein were measured using the Kinase-Glo™ Luminescent Kinase Assay (Promega, Madison, WI, USA). Briefly, 2 μg purified YycG′ protein was pre-incubated with a series of dilutions of the derivatives in reaction buffer [40 mM Tris (pH 7.5), 20 mM MgCl2 and 0.1 mg/ml BSA] at room temperature for 30 min, 4 μM ATP was added and incubated for 30 min at room temperature, then Kinase-Glo™ Reagent was added to detect the remaining amount of ATP, as reflected by luminescence intensity (RLU). In parallel, YycG′ protein with no addition of the derivatives was used as the control and ATP only was used as a blank. The rate of inhibition of protein phosphorylation (Rp) by the derivatives was calculated by the following equation: Rp = RLU(YycG^′+derivative+ATP+Kinase−Glo™)−RLU(YycG^′+ATP+Kinase−Glo™)/RLU(ATP+Kinase−Glo™)−RLU(YycG^′+ATP+Kinase−Glo™) × 100 IC50 (the concentration resulting in 50% inhibition of YycG′ protein autophosphorylation) was obtained by using Origin v7.0 software (OriginLab, Northampton, USA).

ArlS' protein = molecular target: T2, ArlS' protein (Staphylococcus epidermidis, UniProt Q5HPC4); assay: Inhibition of ArlS' autophosphorylation (Kinase-Glo Luminescent Kinase Assay); assay type: biochemical, S. epidermidis; details: for Inhibition of ArlS’ phosphorylation / Luminescence: 200 μM derivative, 2 μg purified protein, 4 μM ATP; for inhibitory effect on the autophosphorylation of ArlS': highest concentration 200 μM, result in words
T2 construct: made in house
T2 sequence (Q5HPC4 240-456): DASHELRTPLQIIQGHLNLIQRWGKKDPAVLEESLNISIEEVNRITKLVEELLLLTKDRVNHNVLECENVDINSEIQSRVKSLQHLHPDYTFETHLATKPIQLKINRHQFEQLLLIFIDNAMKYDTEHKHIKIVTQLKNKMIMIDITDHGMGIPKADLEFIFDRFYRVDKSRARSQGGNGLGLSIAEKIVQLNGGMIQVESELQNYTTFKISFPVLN

[1] = test system: Enterococcus faecalis OG1RF; assay: Standard tube-dilution assay against Enterococcus faecalis; assay type: cell-based; details: result in words
[2] = test system: MRSA strain 226 young biofilms; assay: Microtiter plate assay of 6 h young biofilms of MRSA; assay type: cell-based, S. aureus
Procedure: The biofilm-killing effect for immature (6 h old) biofilms was determined in TSB using a semi-quantitative assay. An overnight culture was diluted 1:200 into TSB medium with 0.25% glucose, and incubated in polystyrene 96-well plates at 37°C for 6 h. Biofilms were exposed to two-fold serial dilutions of the derivatives, and the plates were incubated for another 18 h at 37°C. Following the incubation and removal of non-adherent cells with 200 μl of phosphate-buffered saline, adherent biofilms were fixed with 95% methanol and stained with 2% (w/v) crystal violet. Then, the wells were washed three times with sterile distilled water and the plates were air dried for 2 h. The optical density of each well at 570 nm was determined using a 96-well plate spectrophotometer (DTX880, Beckman Coulter, USA).

[3] = test system: S. epidermidis ATCC 35984 mature biofilms; assay: Cell viability in mature (24 h) biofilms by CLSM with Live/Dead staining; assay type: cell-based, Staphylococcus epidermidis; details: 4 × MIC, 16 h, 24 h mature biofilm; for PI fluorescence quantity (dead cells) / SYTO9 fluorescence quantity (viable cells): Image J
Procedure: The effect of the derivatives on cell viability in mature biofilms (24 h old) was determined using the Live/Dead Bacterial Viability method (Live/Dead BacLight, Molecular Probes, USA). […] The mature biofilms were stained with SYTO 9 and propidium iodide at room temperature for 15 min, following gentle washing of the dishes with normal saline, and were observed under a Leica TCS SP5 CLSM with a 63 × 1.4-NA oil-immersion objective. Further, image analysis was performed using IMARIS 7.0.0 software (Bitplane). The fluorescence quantities of biofilm were determined using Image J software. This assay was performed in triplicate and similar results were obtained.

[4] = test system: S. epidermidis ATCC 35984 biofilm formation; assay: Flow-based biofilm inhibition assay (BioFlux); assay type: cell-based, Staphylococcus epidermidis; details: 2 × MIC; shear 0.15 dyn/cm^2; 16 h; result in words
Procedure: The microfluidic channels of BioFlux 48-well plates (Fluxion Biosciences, South San Francisco, CA, USA) were primed with pre-warmed (37°C) TSB medium from the outlet well at a shear setting of 2 dyn/cm^2 for 10 min. Overnight bacterial culture of S. epidermidis ATCC 35984 was subcultured to mid-log phase and then diluted 1:200 in MHB medium, bacteria were seeded from the outlet well into the channel and viewing window at a shear setting of 2 dyn/cm^2 for 3 s. […] Growth of the biofilms was monitored for up to 16 h. Images of different stages were automatically acquired at 10 min intervals with bright-field illumination.

[5] = Erythrocyte hemolysis assay; assay type: cell-based; details: human, erythrocytes (5% suspension), 37°C; for hemolysis at 1 h, 200 µM: at 200 μM; for hemolysis at 1 h: at MIC (against S epidermidis ATCC 35984)
Procedure: Hemolytic activities of the derivatives were measured on healthy human erythrocytes. A pure suspension of erythrocytes was obtained by washing a blood sample with sterile 0.9% NaCl saline solution. Erythrocytes were resuspended in normal saline to give a 5% solution, then treated with MIC, 4 × MIC or 200 μM of the derivatives for 1 h at 37°C in 96-well microtiter plates. After the incubation and centrifugation at 1,000 g for 10 min, supernatants were transferred to another sterile plate and the absorbance at 570 nm was measured on a spectrophotometric microplate reader. A positive control (100% hemolysis) and a negative control (0% hemolysis) were achieved by incubating with 1% Triton-X 100 and 0.1% DMSO, respectively. Each assay was performed in triplicate and repeated three times.

Structure (SMILES) | inhibition of the enzymatic activity of YycG′ protein (YycG′ protein) | IC50 (YycG′ protein) | Inhibition of ArlS’ phosphorylation (ArlS' protein) | Luminescence (ArlS' protein) | inhibitory effect on the autophosphorylation of ArlS' (ArlS' protein) | anti-bacterial activity [1] | minimal biofilm-killing concentration [2] | PI/Total (reduction of the proportion of viable cells in mature biofilms) [3] | PI fluorescence quantity (dead cells) [3] | SYTO9 fluorescence quantity (viable cells) [3] | biofilm formation under shearing forces [4] | hemolysis at 1 h, 200 µM [5] | hemolysis at 1 h [5]
O=C(O)c1cccc(-c2ccc(C=c3sc4n(c3=O)C(c3ccc(F)cc3)C=C(c3ccccc3)N=4)o2)c1 (stereo not drawn) [H5-33, 3-{5-[5-(4-fluoro-phenyl)-3-oxo-7-phenyl-5H-thiazolo [3,2-a]pyrimidin-2-ylidenemethyl]-furan-2-yl}-benzoic acid] | 77.04% | 64.9 µM | -5.1% | 17786 + 382 RLU | None of them showed an inhibitory effect | displayed anti-bacterial activities | 200 µM | 88.4% | 73.684 ± 5.56 | 9.669 ± 3.64 | significant decrease in the biofilm formation; also recorded: strongly inhibited biofilm formation | 0.32 ± 0.05% | 0.15 ± 0.06%
CCOC(=O)C1=C(c2ccccc2)N=c2sc(=Cc3ccc(-c4ccc(C(=O)O)cc4)o3)c(=O)n2C1c1ccc(F)cc1 (stereo not drawn) [H5-35, 2-[5-(4-carboxy-phenyl)-furan-2-ylmethylene]-5-(4-fluoro-phenyl)-3-oxo-7-phenyl-2,3-dihydro-5H-thiazolo[3,2-a]pyrimidine-6-carboxylic acid ethyl ester] | 63.94% | 78.2 µM | -1.5% | 18075 + 285 RLU | None of them showed an inhibitory effect | displayed anti-bacterial activities | 200 µM | 71.7% | 41.253 ± 5.31 | 16.283 ± 4.75 | significant decrease in the biofilm formation; also recorded: strongly inhibited biofilm formation | 0.27 ± 0.1% | 0.17 ± 0.05%
CCOC(=O)C1=C(c2ccccc2)N=c2sc(=Cc3ccc(-c4cccc(C(=O)O)c4)o3)c(=O)n2C1c1ccc(F)cc1 (stereo not drawn) [H5-32, 2-[5-(3-carboxy-phenyl)-furan-2-ylmethylene]-5-(4-fluoro-phenyl)-3-oxo-7-phenyl-2,3-dihydro-5H-thiazolo[3,2-a]pyrimidine-6-carboxylic acid ethyl ester] | 55.61% | 83.9 µM | -5.9% | – | None of them showed an inhibitory effect | displayed anti-bacterial activities | 200 µM | 66.50% | 40.338 ± 5.03 | 20.321 ± 4.66 | significant decrease in the biofilm formation; also recorded: strongly inhibited biofilm formation | 0.24 ± 0.05% | 0.15 ± 0.05%
CCOC(=O)C1=C(c2ccccc2)N=c2sc(=Cc3ccc(-c4ccc(C(=O)O)cc4)o3)c(=O)n2C1c1ccc(Cl)cc1 (stereo not drawn) [H5-34, 2-[5-(4-carboxy-phenyl)-furan-2-ylmethylene]-5-(4-chloro-phenyl)-3-oxo-7-phenyl-2,3-dihydro-5H-thiazolo[3,2-a]pyrimidine-6-carboxylic acid ethyl ester] | 80.72% | 61.9 µM | -5.6% | 17747 + 622 RLU | None of them showed an inhibitory effect | displayed anti-bacterial activities | 200 µM | 38.80% | 39.578 ± 4.74 | 62.165 ± 6.71 | significant decrease in the biofilm formation; also recorded: strongly inhibited biofilm formation | 0.19 ± 0.01% | 0.22 ± 0.57%
